Legend:
A549 cells [1] = assay: MTT antiproliferative assay, A549; assay type: cell-based; conditions: Homo sapiens, 72 h;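 further: formazan read-out dissolved in DMSO, each compound assayed three times, IC50 computed with Bliss software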
Experimental: The cell lines used in the experiment were available from the Cell Culture Collection of Chinese Academy of Sciences (Shanghai Institutes for Biological Sciences, Chinese Academy of Sciences). […] The formazan crystals were dissolved in 100 µl of DMSO in each well. […] All compounds were tested three times in each of the cell lines. The results, expressed as inhibition rates or IC50 (half-maximal inhibitory concentration), were the averages of two determinations and calculated by using the Bacus Laboratories Incorporated Slide Scanner (Bliss) software.

MCF-7 cells = assay: MTT antiproliferative assay, MCF-7; assay type: cell-based; conditions: Homo sapiens, MCF7; MTT, 72 h, MCF-7 cells; read-out: IC50 MCF-7
Experimental: (§1) The cell lines used in the experiment were available from the Cell Culture Collection of Chinese Academy of Sciences (Shanghai Institutes for Biological Sciences, Chinese Academy of Sciences). Referring to the previous experimental methods of our research, all cells were cultured in suitable medium such as DMEM or RPMI-1640 containing 10% fetal bovine serum at 37°C in 5% CO2 and propagated for 24 h. Then the compounds with different gradient concentrations were added into the medium and incubated for 72 h, and then MTT (thiazolyl blue tetrazolium bromide) with a concentration of 5 µg/ml was added to every well for 4 h at 37°C. The formazan crystals were dissolved in 100 µl of DMSO in each well. The absorbancy at 492 nm (for absorbance of MTT formazan) and 630 nm (for the reference wavelength) was measured with an ELISA reader. All compounds were tested three times in each of the cell lines. The results, expressed as inhibition rates or IC50 (half-maximal inhibitory concentration), were the averages of two determinations and calculated by using the Bacus Laboratories Incorporated Slide Scanner (Bliss) software.

Hela cells = assay: MTT antiproliferative assay, Hela; assay type: cell-based; conditions: Homo sapiens; MTT, 72 h, Hela cells; read-out: IC50 Hela
Experimental: as §1

c-Met kinase = c-Met kinase (Homo sapiens, UniProt P08581); assay: c-Met kinase inhibition assay; assay type: biochemical
VEGFR-2 = VEGFR-2 (Homo sapiens, UniProt P35968); assay: VEGFR-2 kinase inhibition assay; assay type: biochemical
Experimental: (§2) The kinase assay was performed by Pratzer Biotechnology Co. Ltd. (Changsha, China).

EGFR^WT = EGFR^WT (Homo sapiens, UniProt P00533); assay: EGFR^wt kinase inhibition assay; assay type: biochemical
Experimental: as §2

PC-9 cells = assay: Antiproliferative activity, PC-9; assay type: cell-based; conditions: Homo sapiens
Experimental: as §1

H460 cells = assay: Antiproliferative activity, H460; assay type: cell-based; conditions: Homo sapiens, NCI-H460
Experimental: as §1

H1975 cells = assay: Antiproliferative activity, H1975; assay type: cell-based; conditions: Homo sapiens, NCI-H1975
Experimental: as §1

A549 cells [2] = assay: Cell cycle assay by flow cytometry; assay type: cell-based, human; conditions: A549, 1.0 μM, 72 h; control 61.14%
Experimental: A549 cells were placed in 12-well plates at a density of 10^6/well with F-12 K containing 10% FBS as the medium, and the experiment was conducted on alternate days. Cells (1–5×10^6) were collected, centrifuged at 1,500 rpm for 5 min to remove the supernatant, washed with PBS twice, and gently mixed with 200 μl of cell cycle rapid detection reagent to make a single-cell suspension, which was detected by flow cytometry within 1 h.
We treated A549 cells with 1.0 μM compound 17l for 72 h and determined its effect on cell cycle by flow cytometry to further reveal the growth inhibition mechanism of the target compound on tumor cells. […] At the same time, the content of cell block rate decreased in S phase, but the change in G2/M phase was not obvious.

A549 cells [3] = assay: Annexin V/PI apoptosis assay by flow cytometry; assay type: cell-based, human; conditions: 72 h; for Q1-LR: control 1.68%; for Q1-UL: control 1.87%; for Q1-UR: control 2.05%; for total apoptosis rate: control 3.73%; for Q1-LL: control 94.40%
Experimental: The cell apoptosis assay was performed by Pratzer Biotechnology Co. Ltd. (Changsha, China). After A549 cells were resuscitated, the cells were cultured in F-12 K medium containing 10% FBS and 1% pen/strep in incubator with 5% CO2 at 37°C. A549 cells, being in the logarithmic growth phase, were digested with […] and laid in six-well plates with a density of 2 × 10^5/well, and the cells were collected centrifugally after 72 h of treatment with each compound. The cells were washed twice with PBS, which was precooled to 4°C. Then the cells were suspended with 500 μl of buffer, and the concentration was adjusted to 10^6/ml. A 100-μl suspension was placed in a 5-ml flow tube, adding 5 µl of Annexin V-APC, adding 5 μl of propidiμm iodide, and the mixture was mixed and incubated at room temperature without light for 15 min detecting cell apoptosis by flow cytometry (FACS).
The assay of annexin V/PI staining was performed to deeper research the mechanism of apoptosis induced by compound 17l in A549 cells.

p-c-Met (Tyr1003) = assay: Western blot, p-c-Met in A549 cells; assay type: cell-based, human; conditions: A549, 24 h, different concentrations
Description: (§3) Western blot was utilized to further analyze the effect of compound 17l on the downstream signal protein of c-Met and VEGFR-2. The detailed operations refer to the previous method of our research group ([Zhao et al., 2020]). […] The extracted protein was transferred to a PVDF membrane in ice bath conditions after 10% SDS polyacrylamide gel electrophoresis separating the protein by size. The PVDF membrane was rinsed with phosphate-buffered solution (PBST), shaken in a Petri dish three times for 3–5 min every time, and incubated with different target proteins (p-c-Met, p-VEGFR-2, p-ERK 1/2, p-AKT, and GADPH). Finally, the film was exposed and developed in a darkroom. Image Lab software (Molecular Dynamics, Sunnyvale, CA, USA) was utilized to analyze the shadow density of each band, which was then expressed as a percentage of GDPDH band density ([Zhao et al., 2020]).
(§4) We further verified the effect of compound 17l on c-Met and downstream signaling pathways. We treated A549 cell line with different doses of compound 17l for 24 h to measure its phosphorylation inhibition in different pathways.

p-VEGFR-2 (Tyr1059) = assay: Western blot, p-VEGFR-2 in A549 cells; assay type: cell-based, human; conditions: A549, 24 h, different concentrations
Description: as §3, §4

ERK1/2 and AKT = assay: Western blot, downstream ERK1/2 and AKT phosphorylation in A549 cells; assay type: cell-based, human; conditions: A549, 24 h, 1.00 μM
Description: as §3, §4

sheep red blood cells = assay: Hemolytic test; conditions: 16–256 μg/ml, at the highest concentration within the study range
Experimental: The hemolytic toxicity of 17l was studied with 1% Triton and 0.9% normal saline, and the former was a positive control, and the latter was a negative control. […] (1%), 0.9% normal saline, and compound 17l of different concentrations prepared in 0.9% normal saline reacted with the prepared sheep red blood cells, respectively. Photos were taken, and the absorbance value was measured by ultraviolet spectrophotometer at a wavelength of 540 nm, and hemolysis ratio (hemolysis %) was calculated according to the following formula ([Guo et al., 2017]). The experiment was repeated twice in parallel. Hemolysis %=Abs(experimental group)−Abs(negative control)/Abs(positive control)−Abs(negative control)
The best compound 17l with antiproliferative activity and kinase inhibition activity was selected to detect its hemolytic toxicity at a gradient concentration of 16–256 μg/ml, and the safety of intravenous administration was preliminarily investigated. […] Its hemolytic toxicity meets the requirements of intravenous administration, which provides a basis for further in vivo research.

Chain of EGFR^WT (P00533 25-1210): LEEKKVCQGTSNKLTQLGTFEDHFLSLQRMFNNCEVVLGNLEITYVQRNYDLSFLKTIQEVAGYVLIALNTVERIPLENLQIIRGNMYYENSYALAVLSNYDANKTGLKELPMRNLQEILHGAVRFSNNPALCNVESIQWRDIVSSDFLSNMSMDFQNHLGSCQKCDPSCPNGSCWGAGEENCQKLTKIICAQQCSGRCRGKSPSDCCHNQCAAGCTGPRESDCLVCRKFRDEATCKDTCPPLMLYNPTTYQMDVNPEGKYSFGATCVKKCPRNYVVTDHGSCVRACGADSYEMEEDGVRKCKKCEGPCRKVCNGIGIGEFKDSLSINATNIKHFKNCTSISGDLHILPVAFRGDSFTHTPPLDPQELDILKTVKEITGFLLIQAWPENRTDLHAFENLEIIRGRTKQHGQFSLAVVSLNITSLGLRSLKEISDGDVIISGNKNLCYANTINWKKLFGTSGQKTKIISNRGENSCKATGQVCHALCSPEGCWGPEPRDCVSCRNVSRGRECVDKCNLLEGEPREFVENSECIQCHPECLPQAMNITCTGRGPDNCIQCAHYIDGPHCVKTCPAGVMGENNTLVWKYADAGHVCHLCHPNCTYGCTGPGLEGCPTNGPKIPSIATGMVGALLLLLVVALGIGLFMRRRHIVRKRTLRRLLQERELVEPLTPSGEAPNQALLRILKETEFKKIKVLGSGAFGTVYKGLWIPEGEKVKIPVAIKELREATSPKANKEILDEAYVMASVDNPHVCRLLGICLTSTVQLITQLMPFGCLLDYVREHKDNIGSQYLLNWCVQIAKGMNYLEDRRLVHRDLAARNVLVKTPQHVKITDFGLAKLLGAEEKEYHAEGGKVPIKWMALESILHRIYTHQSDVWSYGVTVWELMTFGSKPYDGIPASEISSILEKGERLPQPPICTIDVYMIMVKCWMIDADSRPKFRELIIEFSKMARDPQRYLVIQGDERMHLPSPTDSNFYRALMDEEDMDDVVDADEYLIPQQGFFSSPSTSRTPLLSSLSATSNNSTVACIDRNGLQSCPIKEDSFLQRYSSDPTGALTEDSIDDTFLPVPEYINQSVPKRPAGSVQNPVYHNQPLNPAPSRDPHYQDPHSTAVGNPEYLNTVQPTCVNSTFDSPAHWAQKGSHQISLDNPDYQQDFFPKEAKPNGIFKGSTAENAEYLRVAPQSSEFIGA
Chain of c-Met kinase (P08581 25-1390): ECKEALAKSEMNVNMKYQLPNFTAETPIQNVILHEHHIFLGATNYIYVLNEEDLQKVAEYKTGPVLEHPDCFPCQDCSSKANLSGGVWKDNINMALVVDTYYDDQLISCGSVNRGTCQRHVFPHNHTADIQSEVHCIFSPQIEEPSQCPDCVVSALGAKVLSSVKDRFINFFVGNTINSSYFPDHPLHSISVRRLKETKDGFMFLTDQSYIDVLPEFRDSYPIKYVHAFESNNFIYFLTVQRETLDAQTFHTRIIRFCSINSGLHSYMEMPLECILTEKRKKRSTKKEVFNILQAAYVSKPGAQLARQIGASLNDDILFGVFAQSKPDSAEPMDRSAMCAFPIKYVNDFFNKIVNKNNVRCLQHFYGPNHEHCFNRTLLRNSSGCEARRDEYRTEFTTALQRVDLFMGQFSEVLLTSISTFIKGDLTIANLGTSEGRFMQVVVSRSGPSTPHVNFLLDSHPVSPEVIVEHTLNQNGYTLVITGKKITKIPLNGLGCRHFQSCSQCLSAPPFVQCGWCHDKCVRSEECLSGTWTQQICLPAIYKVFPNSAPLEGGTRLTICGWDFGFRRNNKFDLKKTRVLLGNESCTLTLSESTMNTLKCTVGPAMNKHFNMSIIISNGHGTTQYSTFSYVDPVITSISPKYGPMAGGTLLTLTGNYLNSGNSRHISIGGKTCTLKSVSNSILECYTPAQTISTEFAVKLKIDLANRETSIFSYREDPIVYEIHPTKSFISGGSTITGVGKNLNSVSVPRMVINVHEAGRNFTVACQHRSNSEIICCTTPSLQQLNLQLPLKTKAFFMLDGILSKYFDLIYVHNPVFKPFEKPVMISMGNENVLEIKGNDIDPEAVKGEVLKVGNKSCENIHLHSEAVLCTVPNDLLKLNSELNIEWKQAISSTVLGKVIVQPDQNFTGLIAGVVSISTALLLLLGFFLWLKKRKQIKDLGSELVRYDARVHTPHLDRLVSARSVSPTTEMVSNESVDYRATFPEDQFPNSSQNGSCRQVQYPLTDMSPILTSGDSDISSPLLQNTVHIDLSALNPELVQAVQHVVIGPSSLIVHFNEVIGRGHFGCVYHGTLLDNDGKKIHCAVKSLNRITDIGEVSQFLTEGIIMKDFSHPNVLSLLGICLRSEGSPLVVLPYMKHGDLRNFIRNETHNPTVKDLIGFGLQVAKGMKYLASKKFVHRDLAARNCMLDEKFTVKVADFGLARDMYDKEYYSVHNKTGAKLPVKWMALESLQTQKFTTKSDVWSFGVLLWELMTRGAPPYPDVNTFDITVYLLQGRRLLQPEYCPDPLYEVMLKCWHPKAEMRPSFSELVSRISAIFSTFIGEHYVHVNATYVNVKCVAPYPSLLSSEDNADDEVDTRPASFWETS
Chain of VEGFR-2 (P35968 20-1356): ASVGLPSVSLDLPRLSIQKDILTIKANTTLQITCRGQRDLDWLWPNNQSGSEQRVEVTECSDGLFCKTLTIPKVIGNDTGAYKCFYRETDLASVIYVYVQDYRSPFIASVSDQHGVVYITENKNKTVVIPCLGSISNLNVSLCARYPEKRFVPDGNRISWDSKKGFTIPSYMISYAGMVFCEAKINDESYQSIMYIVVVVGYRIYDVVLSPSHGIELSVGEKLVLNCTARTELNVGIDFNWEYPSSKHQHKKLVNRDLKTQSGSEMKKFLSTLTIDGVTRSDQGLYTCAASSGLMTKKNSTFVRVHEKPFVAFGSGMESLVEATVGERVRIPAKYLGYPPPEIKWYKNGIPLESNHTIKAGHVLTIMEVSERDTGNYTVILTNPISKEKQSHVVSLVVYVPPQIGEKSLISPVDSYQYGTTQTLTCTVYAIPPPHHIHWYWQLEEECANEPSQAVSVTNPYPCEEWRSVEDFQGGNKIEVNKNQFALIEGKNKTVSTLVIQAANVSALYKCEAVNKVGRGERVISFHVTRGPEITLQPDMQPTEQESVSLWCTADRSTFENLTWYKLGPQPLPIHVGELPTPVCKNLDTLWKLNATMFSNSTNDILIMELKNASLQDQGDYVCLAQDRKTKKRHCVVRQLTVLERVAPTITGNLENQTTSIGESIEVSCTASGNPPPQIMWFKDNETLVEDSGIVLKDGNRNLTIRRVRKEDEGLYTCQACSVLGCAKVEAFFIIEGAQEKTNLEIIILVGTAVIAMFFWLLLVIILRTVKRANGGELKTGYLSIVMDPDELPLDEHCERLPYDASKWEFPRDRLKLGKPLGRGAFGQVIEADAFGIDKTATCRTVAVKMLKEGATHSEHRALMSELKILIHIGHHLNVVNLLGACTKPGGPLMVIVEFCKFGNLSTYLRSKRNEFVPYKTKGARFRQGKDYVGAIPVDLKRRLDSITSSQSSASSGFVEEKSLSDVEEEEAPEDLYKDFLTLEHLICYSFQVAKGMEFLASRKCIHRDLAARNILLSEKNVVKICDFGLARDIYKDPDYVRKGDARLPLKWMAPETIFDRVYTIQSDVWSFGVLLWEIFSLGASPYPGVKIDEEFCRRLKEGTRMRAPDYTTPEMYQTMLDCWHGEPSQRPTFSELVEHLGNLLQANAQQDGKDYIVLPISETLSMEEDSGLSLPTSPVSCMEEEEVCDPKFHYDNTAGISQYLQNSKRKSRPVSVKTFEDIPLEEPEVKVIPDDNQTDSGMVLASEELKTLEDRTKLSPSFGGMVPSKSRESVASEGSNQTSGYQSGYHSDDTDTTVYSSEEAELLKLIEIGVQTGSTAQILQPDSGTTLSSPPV

Cc1nnc2c(Oc3ccc(NC(=O)c4cnn(-c5ccc(Cl)cc5)c4C(F)(F)F)cc3F)nccn12 [17l]
IC50 (A549 cells [1]): 980 ± 80 nM
IC50 (MCF-7 cells): 1050 ± 170 nM
IC50 (Hela cells): 1280 ± 250 nM
IC50 (c-Met kinase): 26 nM
IC50 (VEGFR-2): 2600 nM
IC50 (EGFR^WT): > 10000 nM
IC50 (PC-9 cells): 38200 ± 1580 nM
IC50 (H460 cells): 5860 ± 770 nM
IC50 (H1975 cells): 15300 ± 1180 nM
cell block rate in G0/G1 phase (A549 cells [2]): 76.14%
Q1-LR (A549 cells [3]; A549, 0.25 μM): 2.15%
Q1-UL (A549 cells [3]; A549, 0.25 μM): 4.27%
Q1-UR (A549 cells [3]; A549, 0.25 μM): 2.71%
total apoptosis rate (A549 cells [3]; A549, 0.25 μM): 4.86%
Q1-LL (A549 cells [3]; A549, 0.25 μM): 90.88%
Q1-LR (A549 cells [3]; A549, 0.50 μM): 3.07%
Q1-UL (A549 cells [3]; A549, 0.50 μM): 1.53%
Q1-UR (A549 cells [3]; A549, 0.50 μM): 3.38%
total apoptosis rate (A549 cells [3]; A549, 0.50 μM): 6.45%
Q1-LL (A549 cells [3]; A549, 0.50 μM): 92.02%
Q1-LR (A549 cells [3]; A549, 1.00 μM): 5.52%
Q1-UL (A549 cells [3]; A549, 1.00 μM): 0.30%
Q1-UR (A549 cells [3]; A549, 1.00 μM): 6.09%
total apoptosis rate (A549 cells [3]; A549, 1.00 μM): 11.61%
Q1-LL (A549 cells [3]; A549, 1.00 μM): 88.09%
protein levels of p-c-Met (Tyr1003) (p-c-Met (Tyr1003)): inhibited
inhibitory effect on p-VEGFR-2 (Tyr1059) (p-VEGFR-2 (Tyr1059)): not obvious
phosphorylation protein of downstream signals ERK1/2 and AKT (ERK1/2 and AKT): significantly inhibited
hemolytic rate (sheep red blood cells): less than 5%

From article PMC9019572, “Design, Synthesis, and Biological Evaluation of [1,2,4]triazolo[4,3-a] Pyrazine Derivatives as Novel Dual c-Met/VEGFR-2 Inhibitors” (Frontiers in Chemistry, 2022)
